Laboratory results taken from PubChem BioAssay AID228 (DTP/NCI, 2004).
“And” between values parts separate entries of the source, which are not always exact repeats. Identical values can stand only once. Results filed as inconclusive are left out. Starred links: 1 amine or outer side, 2 acyl side, 3 side chain; linkers in the order of their positions; H or OH if unused. Positions of bridges follow the written chain, without caps; N, C: chain ends. Non-standard residues stand in square brackets, D forms with d. Residues, ends and D or L forms follow the SMILES beside them. Chains are numbered I, II in the order given. Actinocin(9to1) = Cc1c2oc3c(C)ccc(C(=O)[*:1])c3nc-2c(C(=O)[*:2])c(N)c1=O; aThr = C[C@H](O)[C@H](N)C(=O)O; NMeV = CN[C@H](C(=O)O)C(C)C; Sar = CNCC(=O)O

Tested on: BDF1 mice, Friend leukemia sc, tumor weight T/C
Assay: NCI In Vivo Anticancer Drug Screen. Data for tumor model Friend Virus Leukemia (Solid) (subcutaneous) in B6D2F1 (BDF1) mice
Conditions: endpoint: mean tumor weight, higher = larger tumour
Protocol: The antitumor activity of compounds was measured in mice bearing transplantable tumors. Survival or tumor size were measured and the results are expressed as the measurement made in the treated group (T) divided by the measurement made in the vehicle treated control group (C). The tumor model used in this assay is Friend Virus Leukemia (Solid) (subcutaneous) in B6D2F1 (BDF1) mice

SMILES: c1ccc2[nH]cnc2c1
- T/C (dose: 38.5 mg/kg/injection, schedule: Q01DX011 (ip), vehicle: carboxymethylcellulose (CMC)): 82 % of control and 88 % of control
- T/C (dose: 77.0 mg/kg/injection, schedule: Q01DX011 (ip), vehicle: carboxymethylcellulose (CMC)): 80 % of control and 83 % of control
- T/C (dose: 308.0 mg/kg/injection, schedule: Q01DX011 (ip), vehicle: carboxymethylcellulose (CMC)): 102 % of control

SMILES: O=C(O)CCCc1ccc(N(CCCl)CCCl)cc1
- T/C (dose: 1.87 mg/kg/injection, schedule: Q01DX011 (ip), vehicle: carboxymethylcellulose (CMC)): 93 % of control
- T/C (dose: 7.5 mg/kg/injection, schedule: Q01DX011 (ip), vehicle: carboxymethylcellulose (CMC)): 76 % of control and 91 % of control

SMILES: CN(C)c1ccc(/C=C/c2ccnc3ccccc23)cc1
- T/C (dose: 37.5 mg/kg/injection, schedule: Q01DX011 (ip), vehicle: saline): 73 % of control
- T/C (dose: 50.0 mg/kg/injection, schedule: Q01DX011 (ip), vehicle: saline): 51 % of control

SMILES: NC(=O)/C=C\C(=O)O (tested in a mixture with another compound)
- T/C (dose: 31.0 mg/kg/injection, schedule: Q#A X022 (ip), vehicle: carboxymethylcellulose (CMC)): 85 % of control
- T/C (dose: 62.5 mg/kg/injection, schedule: Q#A X022 (ip), vehicle: carboxymethylcellulose (CMC)): 75 % of control
- T/C (dose: 125.0 mg/kg/injection, schedule: Q#A X022 (ip), vehicle: carboxymethylcellulose (CMC)): 65 % of control
- T/C (dose: 250.0 mg/kg/injection, schedule: Q#A X022 (ip), vehicle: carboxymethylcellulose (CMC)): 58 % of control

SMILES: CCCCCCCCCCCC[n+]1c(C)cc(N)c2ccccc21
- T/C (dose: 0.1 mg/kg/injection, schedule: Q01DX011 (ip), vehicle: carboxymethylcellulose (CMC)): 182 % of control

SMILES: CCn1cnc2c(=S)nc[nH]c21
- T/C (dose: 25.0 mg/kg/injection, schedule: Q01DX011 (ip), vehicle: carboxymethylcellulose (CMC)): 105 % of control
- T/C (dose: 50.0 mg/kg/injection, schedule: Q01DX011 (ip), vehicle: carboxymethylcellulose (CMC)): 66 % of control
- T/C (dose: 100.0 mg/kg/injection, schedule: Q01DX011 (ip), vehicle: carboxymethylcellulose (CMC)): 12 % of control

SMILES: Cc1c2oc3c(C)ccc(C(=O)N[C@@H]4C(=O)N[C@H](C(C)C)C(=O)N5CCC[C@H]5C(=O)N(C)CC(=O)N(C)[C@@H](C(C)C)C(=O)O[C@H]4C)c3nc-2c(C(=O)N[C@@H]2C(=O)N[C@H](C(C)C)C(=O)N3CCC[C@H]3C(=O)N(C)CC(=O)N(C)[C@@H](C(C)C)C(=O)O[C@H]2C)c(N)c1=O (I: [aThr][dV]P[Sar][NMeV] / II: [aThr][dV]P[Sar][NMeV]; ester I:1-I:C, II:1-II:C; linker I:N-II:N via Actinocin(9to1))
- T/C (dose: 0.03 mg/kg/injection, schedule: Q01DX011 (ip), vehicle: carboxymethylcellulose (CMC)): 86 % of control
- T/C (dose: 0.05 mg/kg/injection, schedule: Q01DX011 (ip), vehicle: carboxymethylcellulose (CMC)): 38 % of control and 49 % of control
- T/C (dose: 0.08 mg/kg/injection, schedule: Q01DX011 (ip), vehicle: carboxymethylcellulose (CMC)): 29 % of control
- T/C (dose: 6.0 micrograms/kg/injection, schedule: Q01DX011 (ip), vehicle: carboxymethylcellulose (CMC)): 102 % of control
- T/C (dose: 13.0 micrograms/kg/injection, schedule: Q01DX011 (ip), vehicle: carboxymethylcellulose (CMC)): 93 % of control
- T/C (dose: 20.0 micrograms/kg/injection, schedule: Q01DX011 (ip), vehicle: carboxymethylcellulose (CMC)): 55 % of control
- T/C (dose: 33.0 micrograms/kg/injection, schedule: Q01DX011 (ip), vehicle: carboxymethylcellulose (CMC)): 105 % of control

SMILES: c1ccc(CNc2ncnc3[nH]ncc23)cc1
- T/C (dose: 1.12 mg/kg/injection, schedule: Q01DX011 (ip), vehicle: carboxymethylcellulose (CMC)): 109 % of control
- T/C (dose: 2.25 mg/kg/injection, schedule: Q01DX011 (ip), vehicle: carboxymethylcellulose (CMC)): 77 % of control
- T/C (dose: 4.5 mg/kg/injection, schedule: Q01DX011 (ip), vehicle: carboxymethylcellulose (CMC)): 78 % of control
- T/C (dose: 9.0 mg/kg/injection, schedule: Q01DX011 (ip), vehicle: carboxymethylcellulose (CMC)): 117 % of control
- T/C (dose: 18.5 mg/kg/injection, schedule: Q01DX011 (ip), vehicle: carboxymethylcellulose (CMC)): 15 % of control

SMILES: C[C@H]1C[C@H]2[C@@H]3CC[C@](O)(C(=O)CO)[C@@]3(C)C[C@H](O)[C@]2(F)[C@@]2(C)C=CC(=O)C=C12
- T/C (dose: 0.5 mg/kg/injection, schedule: Q01DX011 (sc), vehicle: steriod suspending solution): 61 % of control and 63 % of control
- T/C (dose: 1.0 mg/kg/injection, schedule: Q01DX011 (sc), vehicle: steriod suspending solution): 76 % of control and 91 % of control
- T/C (dose: 3.0 mg/kg/injection, schedule: Q01DX011 (sc), vehicle: steriod suspending solution): 60 % of control and 74 % of control
- T/C (dose: 6.0 mg/kg/injection, schedule: Q01DX011 (sc), vehicle: steriod suspending solution): 31 % of control
- T/C (dose: 7.0 mg/kg/injection, schedule: Q01DX011 (sc), vehicle: steriod suspending solution): 47 % of control
- T/C (dose: 15.0 mg/kg/injection, schedule: Q01DX011 (sc), vehicle: steriod suspending solution): 28 % of control
- T/C (dose: 30.0 mg/kg/injection, schedule: Q01DX011 (sc), vehicle: steriod suspending solution): 17 % of control
- T/C (dose: 60.0 mg/kg/injection, schedule: Q01DX011 (sc), vehicle: steriod suspending solution): 10 % of control
- T/C (dose: 120.0 mg/kg/injection, schedule: Q01DX011 (sc), vehicle: steriod suspending solution): 5 % of control
